Results reported in patent US12668599B2, “Heterobifunctional compounds and methods of treating disease” (Halda Therapeutics OpCo, Inc., priority 2023, dated 2026).

Key:
Type in all cases: cell-based
[1] = test system: androgen receptor WT, T878A, L702H and H875Y and BRD4 protein; experiment: Ternary complex formation in TRex293 cells with doxycycline inducible androgen receptor (AR capture / HRP-BRD4 antibody ELISA); settings: Trex293 cells engineered to express wtAR and the T878A, L702H and H875Y AR mutants, 1 hour treatment, FIG. 2
Protocol: Compound II-5 was tested for ability to form a ternary complex containing Compound II-5, androgen receptor, and bromodomain-containing protein 4 (BRD4) protein using TRex293 cells induced to express elevated levels of androgen receptor.
TRex293 cells expressing doxycycline inducible androgen receptor WT, T878A, L702H and H875Y were generated and cultured in DMEM medium supplemented with 10% heat inactivated fetal bovine serum, and 1% pen-strep (culture medium). 25,000 cells were seeded per well in 100 μL of phenol red free DMEM containing 10% CSS, 1% pen strep, and 10 ng/mL doxycycline in a clear 96-well poly-D-lysine coated plate. Plates were incubated at 37° C. Black, opaque 96-well MaxiSorp plates were coated with 50 μL of androgen receptor antibody diluted in phosphate buffered saline (PBS). The coated plates were sealed and placed at 4° C. overnight. Plates coated with androgen receptor antibody were washed three times with 200 μL 1× tris -buffered saline plus 0.1% Tween20 (TBST), then blocked with 200 μL of 3% bovine serum albumin in TBST for 1 hour at room temperature. Test compound titrations were diluted in culture medium. 100 μL of the test compound/media mixture was added to the cell plate. After treatment, plates were incubated for 1 hour. Then, cells were washed once with 250 μL 1× PBS. […] Fluorescent endpoint read was conducted on a SpectraMax plate reader.

[2] = test system: T-Rex 293 cell line SC3 cells lacking increased expression of androgen receptor protein; experiment: Cellular growth inhibition, T-Rex 293 SC3 cells without doxycycline (CellTiter-Glo 2.0, 72 hours); settings: 72 h, T-Rex 293 SC3 cells not exposed to doxycycline (no increased androgen receptor expression)
[3] = test system: T-Rex 293 cell line SC3 cells having increased expression of androgen receptor protein due to exposure to doxycycline; experiment: Cellular growth inhibition, T-Rex 293 SC3 cells with doxycycline-induced androgen receptor (CellTiter-Glo 2.0, 72 hours)

## COc1cc(O[C@H]2C(C)(C)[C@H](NC(=O)c3cnc(N4CCC5(CC4)CC(Oc4ccc(C6=N[C@@H](Cc7ncco7)c7nnc(C)n7-c7sc(C)c(C)c76)cc4)C5)nc3)C2(C)C)ccc1C#N [II-5, N-[(1r,3r)-3-(4-cyano-3-methoxy-phenoxy)-2,2,4,4-tetramethyl-cyclobutyl]-2-[2-[4-[(9S)-4,5,13-trimethyl-9-(oxazol-2-ylmethyl)-3-thia-1,8,11,12-tetrazatricyclo[8.3.0.0^2,6]trideca-2 (6),4,7,10,12-pentaen-7-yl]phenoxy]-7-azaspiro[3.5]nonan-7-yl]pyrimidine-5-carboxamide]
[1]
  ternary complex formation between Compound II-5, androgen receptor, and BRD4: detected
[2]
  GI50: < 500 nM
[3]; GI50 of the top compound in the pair divided by GI50 of the lower compound, T-Rex 293 SC3 cells with doxycycline-induced androgen receptor
  Ratio of GI50's: 1
[3]; T-Rex 293 SC3 cells with 10 ng/ml doxycycline (increased androgen receptor expression), 72 hours, CellTiter-Glo 2.0
  GI50: < 500 nM
